According to BindingDB's records for doi:10.1016/j.chembiol.2012.04.012 (Albert Einstein College of Medicine, 2012):
pKi: −log10 of the molar value.

Molecular target: T1, Hypoxanthine-guanine-xanthine phosphoribosyltransferase (Plasmodium falciparum (isolate FCR-3 / Gambia), UniProt P20035)
T1 sequence (P20035 whole entry): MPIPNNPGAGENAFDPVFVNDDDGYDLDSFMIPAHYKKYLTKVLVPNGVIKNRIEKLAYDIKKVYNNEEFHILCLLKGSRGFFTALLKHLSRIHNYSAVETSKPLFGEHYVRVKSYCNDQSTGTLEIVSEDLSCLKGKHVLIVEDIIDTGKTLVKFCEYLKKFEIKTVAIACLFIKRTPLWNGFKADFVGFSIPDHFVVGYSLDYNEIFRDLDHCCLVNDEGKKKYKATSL
Experiment: Inhbition Assay
Conditions: pH 7.6; 37 °C
Method: PfHGXPRT activity was measured using spectrophotometric assay observing the conversion of xanthine and 5-phospho-alpha-D-ribose-1-pyrophosphate to xanthosine-5'-monophosphate and inorganic pyrophosphate (PPi) at 247nm or the conversion of guanine and PRPP to guanosine-5'-monophosphate and PPi on a Varian Cary 100 spectrophotometer.

pKi	SMILES
7.97	O=c1[nH]cnc2c(NCCCP(=O)(O)O)c[nH]c12 [HGXPRT Inhibitor, 2]
9.19	O=c1[nH]cnc2c(N[C@H](CO)CCP(=O)(O)O)c[nH]c12 [HGXPRT Inhibitor, 3]
